# Source: US8338565B2, “Macrocyclic compounds for inhibition of tumor necrosis factor alpha” (Ensemble Therapeutics Corporation, priority 2008, dated 2012)
# Numbered stars: 1 amine (or outer) side, 2 acyl side, 3 side chain; on linkers, the order of the positions; unused ones are H or OH. Bridge positions count the residues as written; N and C are the ends. Square brackets hold non-standard residues; d marks the D form. Peptide text beside a SMILES is read from it. Phe(4-CF3) = N[C@@H](Cc1ccc(C(F)(F)F)cc1)C(=O)O; dPhe(4-CF3) = N[C@H](Cc1ccc(C(F)(F)F)cc1)C(=O)O; Phe(4-COOH) = N[C@@H](Cc1ccc(C(=O)O)cc1)C(=O)O; Bip = N[C@@H](Cc1ccc(-c2ccccc2)cc1)C(=O)O; Phe(4-NH2) = Nc1ccc(C[C@H](N)C(=O)O)cc1; d(β3hF) = N[C@@H](CC(=O)O)Cc1ccccc1; d(hPhe) = N[C@H](CCc1ccccc1)C(=O)O; dNMeF = CN[C@H](Cc1ccccc1)C(=O)O; hPhe = N[C@@H](CCc1ccccc1)C(=O)O; d2Thi = N[C@H](Cc1cccs1)C(=O)O; Suc = O=C(CCC(=O)[*:2])[*:1]; Inp = O=C(O)C1CCNCC1; βAla = NCCC(=O)O
# Target: T1, TNFα / TNFα receptor (TNFα R1/Fc) (Homo sapiens, UniProt P01375)
# T1 construct: purchased R&D Systems
# T1 sequence (P01375 77-233 limits assumed, species assumed): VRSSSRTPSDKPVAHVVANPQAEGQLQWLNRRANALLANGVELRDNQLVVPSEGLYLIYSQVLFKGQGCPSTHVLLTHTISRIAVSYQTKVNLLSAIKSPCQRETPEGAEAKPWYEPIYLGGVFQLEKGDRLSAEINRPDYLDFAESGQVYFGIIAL
# Assay: Inhibition of binding of TNFα to the TNFα receptor (plate ELISA competition)
# Details: Activity (IC50, inhibition of TNFα binding to TNFα R1/Fc), Table 2
# Protocol: The compounds listed in Table 2 below were assayed for ability to inhibit binding of TNFα to the TNFα receptor (TNFα R1/Fc). The assays were performed as described in the following procedure: TNFα (R&D Systems) was coated on high binding plate wells (Corning 96-well) at a single uniform concentration of 15 nM, 100 μL/well in PBS. The coating proceeded for 30 minutes at 37° C. then 10 minutes at 4° C. The coated plate was washed with PBST, then 250 μL/well of blocking solution (PBST 0.1% BSA, bovine serum albumin) was added and incubation proceeded for 30-45 minutes at room temperature with agitation. The solution phase competition proceeded separately with the dilutions of test compound in PBST (phosphate buffered saline with Tween 20), 2% DMSO in a polypropylene plate (Corning 96-well storage plate) with a single concentration, 8.33 nM of the high affinity receptor for TNFα (R&D Systems). This solution phase incubation proceeded for 30 minutes at room temperature with agitation and was then added to the washed TNFα coated assay plate, 100 μL/well, and was incubated for a further 30 minutes at room temperature with agitation. The assay plate was washed and 100 μL goat anti-human IgG (Fc) HRP labeled antibody in PBST, 13 pM, (KPL Cat#04-10-2) was added to each well. This incubation proceeded for 25-30 minutes at room temperature with agitation. Following this incubation step, the plate was washed and a 100 μL TMB solution (SUREBLUE™ TMB Peroxidase substrate, KPL) was added per well and allowed to stand approximately 3-5 minutes for development. The TMB reaction was stopped with the addition of 0.5N HCl and then the plate was read for absorbance at 450 nm.
row,SMILES,IC50
1,O=C1COc2ccc(cc2)C[C@@H](C(=O)N2CCC[C@@H]2C(=O)O)NC(=O)[C@@H](CCc2ccccc2)NC(=O)[C@H](Cc2ccc(-c3ccccc3)cc2)NC(=O)[C@@H](Cc2cccs2)N1 [Compound 303],10 to 30 µM
2,O=C1COc2ccc(cc2)C[C@@H](C(=O)N[C@H](CCc2ccccc2)C(=O)O)NC(=O)[C@H](CCc2ccccc2)NC(=O)[C@@H](Cc2ccc(-c3ccccc3)cc2)NC(=O)[C@H](Cc2c[nH]c3ccccc23)N1 [Compound 743],< 10 µM

# Same assay, conditions: Table 2; read-out: Activity (IC50, inhibition of TNFα binding to TNFα R1/Fc)
row,SMILES,IC50
1,O=C1COc2ccc(cc2)C[C@@H](C(=O)O)NC(=O)[C@@H](Cc2ccccc2)NC(=O)[C@H](Cc2ccc(-c3ccccc3)cc2)NC(=O)[C@H](Cc2cccs2)N1 [Compound 215],30 to 100 µM
2,CC(=O)NCCCC[C@@H]1NC(=O)[C@H](Cc2ccc(-c3ccccc3)cc2)NC(=O)[C@H](Cc2cccs2)NC(=O)COc2ccc(cc2)C[C@@H](C(=O)O)NC1=O [Compound 256],> 100 µM
3,O=C1CCNC(=O)c2ccc(cc2)C[C@@H](C(=O)O)NC(=O)[C@H](Cc2ccccc2)NC(=O)[C@H](Cc2ccc(-c3ccccc3)cc2)NC(=O)[C@H](CCc2ccccc2)N1 [Compound 463] ([βAla][hPhe][Bip]F[Phe(4-COOH)]-OH; lactam N-5),> 100 µM
4,O=C1COc2ccc(cc2)C[C@@H](C(=O)N[C@H](Cc2ccccc2)C(=O)O)NC(=O)[C@H](Cc2ccccc2)NC(=O)[C@@H](Cc2ccc(-c3ccccc3)cc2)NC(=O)[C@H](Cc2cccs2)N1 [Compound 227],< 10 µM
5,O=C1CCC(=O)N[C@H](Cc2ccc(O)cc2)C(=O)N[C@@H](Cc2ccc(-c3ccccc3)cc2)C(=O)N[C@H](Cc2ccccc2)C(=O)N[C@H](C(=O)O)Cc2ccc(cc2)N1 [Compound 121] ([dY][Bip][dF][Phe(4-NH2)]-OH; linker N-4 via Suc),> 100 µM
6,O=C1CCC(=O)N[C@H](Cc2cccs2)C(=O)N[C@@H](Cc2ccc(-c3ccccc3)cc2)C(=O)N[C@H](Cc2ccccc2)CC(=O)N[C@H](C(=O)O)Cc2ccc(cc2)N1 [Compound 56] ([d2Thi][Bip][d(β3hF)][Phe(4-NH2)]-OH; linker N-4 via Suc),> 100 µM
7,O=C(O)[C@H](Cc1ccccc1)NC(=O)[C@H]1Cc2ccc(cc2)NC(=O)[C@H](O)[C@@H](O)C(=O)N[C@@H](Cc2cccs2)C(=O)N[C@H](Cc2ccc(Br)cc2)C(=O)N[C@@H](Cc2ccccc2)C(=O)N1 [Compound 438],< 10 µM
8,O=C1CCC(=O)N[C@H](Cc2cccs2)C(=O)N[C@@H](Cc2ccc(-c3ccccc3)cc2)C(=O)N[C@H](Cc2ccc(C(F)(F)F)cc2)C(=O)N[C@H](C(=O)O)Cc2ccc(cc2)N1 [Compound 79] ([d2Thi][Bip][dPhe(4-CF3)][Phe(4-NH2)]-OH; linker N-4 via Suc),> 100 µM
9,O=C1CCC(=O)N[C@H](CCc2ccccc2)C(=O)N[C@@H](Cc2ccc(-c3cc(F)cc(F)c3)cc2)C(=O)N[C@H](Cc2ccccc2)C(=O)N[C@H](C(=O)O)Cc2ccc(cc2)N1 [Compound 182],30 to 100 µM
10,O=C1N[C@H](Cc2ccccc2)C(=O)N[C@H](C(=O)O)Cc2ccc(cc2)NC(=O)[C@H](O)[C@@H](O)C(=O)N[C@H](Cc2cccs2)C(=O)NC1c1ccc(Br)cc1 (stereo partly shown) [Compound 294],30 to 100 µM
11,O=C1CCC(=O)N[C@H](CCc2ccccc2)C(=O)N[C@@H](Cc2ccc(C(F)(F)F)cc2)C(=O)N[C@H](Cc2ccccc2)C(=O)N[C@H](C(=O)O)Cc2ccc(cc2)N1 [Compound 2] ([d(hPhe)][Phe(4-CF3)][dF][Phe(4-NH2)]-OH; linker N-4 via Suc),> 100 µM
12,O=C1CCC(=O)N[C@H](Cc2cccs2)C(=O)N[C@@H](Cc2ccc(-c3ccccc3)cc2)C(=O)N[C@H](Cc2ccccc2)C(=O)N[C@H](C(=O)N2CCC(C(=O)O)CC2)Cc2ccc(cc2)N1 [Compound 23] ([d2Thi][Bip][dF][Phe(4-NH2)][Inp]-OH; linker N-4 via Suc),> 100 µM
13,O=C1N[C@H](CCc2ccccc2)C(=O)N[C@@H](C(=O)O)Cc2ccc(cc2)NC(=O)[C@H](O)[C@@H](O)C(=O)N[C@H](Cc2cccs2)C(=O)N[C@H]1Cc1ccc(Cl)cc1Cl [Compound 240],10 to 30 µM
14,CN1C(=O)[C@H](Cc2ccc(-c3ccccc3)cc2)NC(=O)[C@@H](Cc2cccs2)NC(=O)CCC(=O)Nc2ccc(cc2)C[C@@H](C(=O)O)NC(=O)[C@H]1Cc1ccccc1 [Compound 57] ([d2Thi][Bip][dNMeF][Phe(4-NH2)]-OH; linker N-4 via Suc),> 100 µM
15,CC(=O)NCCCC[C@@H]1NC(=O)COc2ccc(cc2)C[C@@H](C(=O)O)NC(=O)[C@H](Cc2ccccc2)NC(=O)[C@H](Cc2ccc(-c3ccccc3)cc2)NC1=O [Compound 490],> 100 µM
16,O=C(O)[C@@H]1Cc2ccc(cc2)NC(=O)[C@H](O)[C@@H](O)C(=O)N[C@H](Cc2ccc(F)cc2)C(=O)N[C@@H](Cc2ccc(-c3ccccc3)cc2)C(=O)N[C@H](Cc2ccccc2)C(=O)N1 [Compound 261],30 to 100 µM

# Further lines, results first:
row,IC50,SMILES
1,< 10 µM,O=C1COc2ccc(cc2)C[C@@H](C(=O)O)NC(=O)[C@H](CCc2ccccc2)NC(=O)[C@@H](Cc2ccc(-c3ccccc3)cc2)NC(=O)[C@H](Cc2ccc(OCc3ccccc3)cc2)N1 [Compound 685]
2,< 10 µM,O=C1COc2ccc(cc2)C[C@@H](C(=O)O)NC(=O)[C@H](CCc2ccccc2)NC(=O)[C@@H](Cc2ccc(-c3ccc(F)cc3)cc2)NC(=O)[C@H](Cc2cccs2)N1 [Compound 655]
3,10 to 30 µM,CC(C)(C)c1ccc(C[C@@H]2NC(=O)COc3ccc(cc3)C[C@@H](C(=O)O)NC(=O)[C@H](CCc3ccccc3)NC(=O)[C@@H](Cc3ccc(-c4ccccc4)cc3)NC2=O)cc1 [Compound 515]
4,10 to 30 µM,Nc1ccc(C[C@H](NC(=O)[C@@H]2Cc3ccc(cc3)NC(=O)CCC(=O)N[C@H](CCc3ccccc3)C(=O)N[C@@H](Cc3ccc(-c4ccccc4)cc3)C(=O)N[C@H](Cc3ccccc3)C(=O)N2)C(=O)O)cc1 [Compound 505] ([d(hPhe)][Bip][dF][Phe(4-NH2)][Phe(4-NH2)]-OH; linker N-4 via Suc)
5,10 to 30 µM,O=C1COc2ccc(cc2)C[C@H](C(=O)N[C@H](CCc2ccccc2)C(=O)O)NC(=O)[C@H](Cc2ccccc2F)NC(=O)[C@@H](Cc2ccc(-c3ccccc3)cc2)NC(=O)[C@H](Cc2c[nH]c3ccccc23)N1 [Compound 735]
6,< 10 µM,O=C1COc2ccc(cc2)C[C@@H](C(=O)N[C@H](CCc2ccccc2)C(=O)O)NC(=O)[C@H](Cc2ccccc2F)NC(=O)[C@@H](Cc2ccc(-c3ccccc3)cc2)NC(=O)[C@H](Cc2ccncc2)N1 [Compound 742]
7,< 10 µM,O=C1COc2ccc(cc2)C[C@@H](C(=O)O)NC(=O)[C@H](CCc2ccccc2)NC(=O)[C@@H](Cc2ccc(-c3ccccc3)cc2)NC(=O)[C@H](Cc2ccc3ccccc3c2)N1 [Compound 695]
8,< 10 µM,COc1cccc(C[C@@H]2NC(=O)[C@@H](Cc3ccc(-c4ccccc4)cc3)NC(=O)[C@H](Cc3ccncc3)NC(=O)COc3ccc(cc3)C[C@@H](C(=O)O)NC2=O)c1 [Compound 638]
9,< 10 µM,O=C1COc2ccc(cc2)C[C@@H](C(=O)N[C@@H](CO)C(=O)O)NC(=O)[C@H](CCc2ccccc2)NC(=O)[C@@H](Cc2ccc(-c3ccccc3)cc2)NC(=O)[C@H](Cc2ccc(-c3ccncc3)cc2)N1 [Compound 583]
10,< 10 µM,O=C1COc2ccc(cc2)C[C@@H](C(=O)O)NC(=O)[C@H](CCc2ccccc2)NC(=O)[C@@H](Cc2ccc(-c3ccccc3)cc2)NC(=O)[C@H](Cc2cscn2)N1 [Compound 696]
